# Measurements from PubChem BioAssay (NCI).
#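 Growth conditions: 96-well plates. Treatment: test compound, 48 hours, 5 concentrations. Analysis: linear interpolation between bracketing concentrations; unreached endpoints set to highest concentration. GI50 = concentration required for 50% inhibition of growth. TGI: concentration producing complete growth inhibition.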
# Legend:
# Test in all cases: NCI anticancer screen, dose series, 48 h
# [1] = tested on: IGROV1 ovarian
# [2] = tested on: KM12 colon
# [3] = tested on: UO-31 renal
# [4] = tested on: SN12C renal
# [5] = tested on: HCC-2998 colon
# [6] = tested on: OVCAR-4 ovarian
# [7] = tested on: SW-620 colon
# [8] = tested on: NCI-H23 lung
# [9] = tested on: BT-549 breast
# [10] = tested on: M14 melanoma
# [11] = tested on: HL-60(TB) leukemia
# [12] = tested on: NCI-H460 lung
# [13] = tested on: HS 578T breast
# [14] = tested on: A498 renal
# [15] = tested on: HCT-15 colon
# [16] = tested on: EKVX NSCLC
# [17] = tested on: SF-268 CNS
# [18] = tested on: MOLT-4 leukemia
# [19] = tested on: MDA-MB-231 breast
# [20] = tested on: COLO 205 colon
# [21] = tested on: SK-OV-3 ovarian
# [22] = tested on: HOP-92 NSCLC
# [23] = tested on: NCI/ADR-RES ovarian
# [24] = tested on: SNB-19 CNS
# [25] = tested on: HT29 colon
# [26] = tested on: TK-10 renal
# [27] = tested on: OVCAR-3 ovarian
# [28] = tested on: UACC-257 melanoma
# [29] = tested on: U251 CNS
# [30] = tested on: RXF 393 renal
# [31] = tested on: SK-MEL-5 melanoma
# [32] = tested on: T-47D breast
# [33] = tested on: CCRF-CEM leukemia
# [34] = tested on: DU-145 prostate
# [35] = tested on: HCT-116 colon
# [36] = tested on: CAKI-1 renal
# [37] = tested on: MALME-3M melanoma
# [38] = tested on: A549 NSCLC
# [39] = tested on: SK-MEL-2 melanoma
# [40] = tested on: MCF7 breast
# [41] = tested on: ACHN renal
# [42] = tested on: MDA-MB-468 breast
# [43] = tested on: LOX IMVI melanoma
# [44] = tested on: K-562 leukemia
# [45] = tested on: HOP-62 NSCLC
# [46] = tested on: NCI-H522 lung
# [47] = tested on: UACC-62 melanoma
# [48] = tested on: SF-539 CNS
# [49] = tested on: SF-295 CNS
# [50] = tested on: SR leukemia
# [51] = tested on: PC-3 prostate
# [52] = tested on: OVCAR-5 ovarian
# [53] = tested on: MDA-MB-435
# [54] = tested on: SNB-75 CNS
# [55] = tested on: 786-0 renal
# [56] = tested on: OVCAR-8 ovarian
# [57] = tested on: NCI-H226 lung
# [58] = tested on: SK-MEL-28 melanoma
# [59] = tested on: RPMI-8226 leukemia
compound,measurement,setting,value
O=C(CNc1nc(-c2ccccc2)cs1)Nc1ccc([N+](=O)[O-])cc1,GI50,[1],3.84 µM
same,TGI,[1],16 µM
same,GI50,[2],8.27 µM
same,TGI,[2],20.7 µM
same,GI50,[3],4.58 µM
same,TGI,[3],18.1 µM
same,GI50,[4],3.37 µM
same,TGI,[4],13.6 µM
same,GI50,[5],3.5 µM
same,TGI,[5],12.9 µM
same,GI50,[6],3.52 µM
same,TGI,[6],12.8 µM
same,GI50,[7],5.01 µM
same,TGI,[7],18 µM
same,GI50,[8],3.32 µM
same,TGI,[8],13.7 µM
same,GI50,[9],2.35 µM
same,TGI,[9],10.1 µM
same,GI50,[10],5.07 µM
same,TGI,[10],19.7 µM
same,GI50,[11],2.97 µM
same,TGI,[11],10.6 µM
same,GI50,[12],10.2 µM
same,TGI,[12],23.8 µM
same,GI50,[13],10.2 µM
same,TGI,[13],> 100 µM
same,GI50,[14],16.9 µM
same,TGI,[14],32.3 µM
same,GI50,[15],3.47 µM
same,TGI,[15],13.1 µM
same,GI50,[16],3.8 µM
same,TGI,[16],14.6 µM
same,GI50,[17],4.82 µM
same,TGI,[17],29.5 µM
same,GI50,[18],3.66 µM
same,TGI,[18],23 µM
same,GI50,[19],3.07 µM
same,TGI,[19],12.5 µM
same,GI50,[20],4.59 µM
same,TGI,[20],15.9 µM
same,GI50,[21],16.4 µM
same,TGI,[21],40.1 µM
same,GI50,[22],6.65 µM
same,TGI,[22],25.1 µM
same,GI50,[23],3.77 µM
same,TGI,[23],20.4 µM
same,GI50,[24],10.7 µM
same,TGI,[24],22.5 µM
same,GI50,[25],3.73 µM
same,TGI,[25],15.8 µM
same,GI50,[26],11.1 µM
same,TGI,[26],24.2 µM
same,GI50,[27],3.65 µM
same,TGI,[27],13.3 µM
same,GI50,[28],8.41 µM
same,TGI,[28],21.8 µM
same,GI50,[29],2.85 µM
same,TGI,[29],11.1 µM
same,GI50,[30],2.77 µM
same,GI50,[31],5.82 µM
same,TGI,[31],18.6 µM
same,GI50,[32],4.23 µM
same,TGI,[32],21.3 µM
same,GI50,[33],2.71 µM
same,TGI,[33],13.4 µM
same,GI50,[34],10.9 µM
same,TGI,[34],25.4 µM
same,GI50,[35],3.22 µM
same,TGI,[35],14.2 µM
same,GI50,[36],5.26 µM
same,TGI,[36],18.3 µM
same,GI50,[37],2.29 µM
same,TGI,[37],6.21 µM
same,GI50,[38],9.71 µM
same,TGI,[38],24.4 µM
same,GI50,[39],14.2 µM
same,TGI,[39],30.5 µM
same,GI50,[40],2.9 µM
same,TGI,[40],12.1 µM
same,GI50,[41],2.39 µM
same,TGI,[41],6.98 µM
same,GI50,[42],1.55 µM
same,TGI,[42],3.16 µM
same,GI50,[43],2.2 µM
same,TGI,[43],11.1 µM
same,GI50,[44],3.26 µM
same,TGI,[44],> 100 µM
same,GI50,[45],14.4 µM
same,TGI,[45],35 µM
same,GI50,[46],1.9 µM
same,TGI,[46],3.92 µM
same,GI50,[47],4.41 µM
same,TGI,[47],17 µM
same,GI50,[48],3.19 µM
same,TGI,[48],10.2 µM
same,GI50,[49],8.63 µM
same,TGI,[49],21.6 µM
same,GI50,[50],6.62 µM
same,TGI,[50],41.3 µM
same,GI50,[51],4.75 µM
same,TGI,[51],23.2 µM
same,GI50,[52],7.22 µM
same,TGI,[52],20.1 µM
same,GI50,[53],6.79 µM
same,TGI,[53],19.2 µM
same,GI50,[54],3.16 µM
same,TGI,[54],15.5 µM
same,GI50,[55],4.1 µM
same,TGI,[55],14.1 µM
same,GI50,[56],11.1 µM
same,TGI,[56],28.2 µM
same,GI50,[57],12.5 µM
same,TGI,[57],28.3 µM
same,GI50,[58],10.3 µM
same,TGI,[58],21.9 µM
same,GI50,[59],3.25 µM
same,TGI,[59],19.8 µM
